Biological target: T1, Ba/F3 cell EGFR Exon20 ins NPH (Homo sapiens, UniProt P00533, INS773NPH)
T1 construct: expressed in transfected cells; host or cells: Ba/F3
Assay: Ba/F3 cell proliferation suppression, EGFR Exon20 ins NPH
Format: cell-based
Conditions: GI50 class; Ba/F3 cell line with NPH inserted at Exon20 of EGFR; 72 hours
Method in brief: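 Seed 3000–5000 cells/well; after 24 h add compound (12 conc., 0.3 nM–50 um final); incubate 72 h; add CellTiter-Glo, 10 min room temperature; read luminescence; GI50 from % growth vs control, triplicate.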

Row | SMILES | Ba/F3 (NPH) Activity
1 | C=CC(=O)Nc1cc(Nc2cc(N3OCC[C@@H]3c3cccc(Cl)c3Cl)ncn2)c(OC)cc1N1C[C@@H]2C[C@H]1CN2CC [compound 524, N-(5-((6-((R)-3-(2,3-dichlorophenyl)isoxazolidine-2-yl)pyrimidine-4-yl)amino)-2-((1S,4S)-5-ethyl-2,5-diazabicyclo[2.2.1]heptane-2-yl)-4-methoxyphenyl) acrylamide] | A (GI50 < 50 nM)
2 | C=CC(=O)Nc1cc(Nc2cc(N3OCC[C@H]3c3c(F)cccc3F)ncn2)c(OC)cc1N1CCN(CC)CC1 [compound 895, N-(5-((6-((S)-3-(2,6-difluorophenyl)isoxazolidine-2-yl)pyrimidine-4-yl)amino)-2-(4-ethylpiperazine-1-yl)-4-methoxyphenyl) acrylamide] | C (500 nM ≤ GI50 < 5000 nM)
3 | C=CC(=O)Nc1cc(Nc2cc(N3OCC[C@@H]3c3cc(F)ccc3F)ncn2)c(OC)cc1N1CCC(N2CC[C@@H](N(C)C)C2)CC1 [compound 304, N-(5-((6-((R)-3-(2,5-difluorophenyl)isoxazolidine-2-yl)pyrimidine-4-yl)amino)-2-(4-((R)-3-(dimethylamino)pyrolidine-1-yl)piperidine-1-yl)-4-methoxyphenyl) acrylamide] | A (GI50 < 50 nM)
4 | C=CC(=O)Nc1cc(Nc2cc(N3OCC[C@@H]3c3cccc(F)c3)ncn2)c(OC)cc1N1CCC(N2CCOCC2)CC1 [Example 38, N-(5-((6-((R)-3-(3-fluorophenyl)isoxazolidine-2-yl)pyrimidine-4-yl)amino)-4-methoxy-2-(4-morpholinopiperidine-1-yl)phenyl) acrylamide] | A (GI50 < 50 nM)
5 | C=CC(=O)Nc1cc(Nc2cc(N3OCC[C@@H]3c3cccc(Cl)c3Cl)ncn2)c(OC)cc1-n1cnc(C)c1 [compound 527, N-(5-((6-((R)-3-(2,3-dichlorophenyl)isoxazolidine-2-yl)pyrimidine-4-yl)amino)-4-methoxy-2-(4-methyl-1H-imidazole-1-yl)phenyl)acrylamide] | A (GI50 < 50 nM)
6 | C=CC(=O)Nc1cc(Nc2cc(N3OCC[C@@H]3c3cc(F)ccc3F)ncn2)c(OC)cc1N1CCC(N2C[C@@H](C)N(CC)[C@@H](C)C2)CC1 [compound 841, N-(5-((6-((R)-3-(2,5-difluorophenyl)isoxazolidine-2-yl)pyrimidine-4-yl)amino)-2-(4-((3S,5R)-4-ethyl-3,5-dimethylpiperazine-1-yl)piperidine-1-yl)-4-methoxyphenyl) acrylamide] | A (GI50 < 50 nM)
7 | C=CC(=O)Nc1cc(Nc2cc(N3OCC[C@@H]3c3ccc(F)cc3)ncn2)c(OC)cc1N1CCC(N2CCC(N(C)C)CC2)CC1 [compound 870, N-(2-(4-(dimethylamino)-[1,4'-bipiperidine]-1'-yl)-5-((6-((R)-3-(4-fluorophenyl)isoxazolidine-2-yl)pyrimidine-4-yl)amino)-4-methoxyphenyl) acrylamide] | A (GI50 < 50 nM)
8 | C=CC(=O)Nc1cc(Nc2cc(N3OCC[C@@H]3c3ccc(C)nc3)ncn2)c(OC)cc1N1CCC(N2CCN(C3CC3)CC2)CC1 [Example 67, N-(2-(4-(4-cyclopropylpiperazine-1-yl)piperidine-1-yl)-4-methoxy-5-((6-((R)-3-(6-methylpyridine-3-yl)isoxazolidine-2-yl)pyrimidine-4-yl)amino)phenyl) acrylamide] | B (50 nM ≤ GI50 < 500 nM)
9 | C=CC(=O)Nc1cc(Nc2cc(N3OCC[C@@H]3c3cccc(C)c3F)ncn2)c(OC)cc1N1CCC(N2CCN(CC)CC2)CC1 [compound 318, N-(2-(4-(4-ethylpiperazine-1-yl)piperidine-1-yl)-5-((6-((R)-3-(2-fluoro-3-methylphenyl)isoxazolidine-2-yl)pyrimidine-4-yl)amino)-4-methoxyphenyl) acrylamide] | A (GI50 < 50 nM)

— patent US12157730B2, “Heteroaryl derivative, method for producing same, and pharmaceutical composition comprising same as effective component” (VORONOI INC., priority 2019, dated 2024)
